ChEMBL document CHEMBL5143564, “PES derivative PESA is a potent tool to globally profile cellular targets of PES” (Bioorg Med Chem Lett, 2022)
Calls of active or inactive are those of the source. The calls are words filed in the database; no cut-off is given here.

What was measured:
[1] = GSH reactivity in pH 7.4 buffer assessed as GSH adduct formation by measuring molecular weight at 1 mM by Q-TOF LC/MS analysis; assay type: physicochemical; details: pH 7.4, 1000 µM
Homo sapiens = organism: Homo sapiens; test: Binding affinity to ADP-bound full-length human HSP70 by TAMRA-azide based fluorescence imaging analysis; details: dose 0.2-20 µM, DDE = dose-dependent effect
DOHH-2 [2] = test: Induction of apoptosis in human DOHH-2 cells assessed as increase in cleaved caspase-3 expression at 8 uM measured after 4 to 24 hrs by Western blot analysis; assay type: functional, cell-based; details: time 4-24 hrs
DOHH-2 [3] = test: Induction of apoptosis in human DOHH-2 cells assessed as increase in cleaved PARP expression at 8 uM measured after 4 to 24 hrs by Western blot analysis; assay type: functional, cell-based; details: time 4-24 hrs
DOHH-2 [4] = test: Induction of apoptosis in human DOHH-2 cells assessed as increase in cleaved PARP expression at 0.5 to 8 uM measured after 24 hrs by Western blot analysis; assay type: functional, cell-based; details: dose 0.5-8 µM
DOHH-2 [5] = test: Induction of autophagy in human DOHH-2 cells assessed as reduction in p62 expression at 8 uM measured after 4 to 24 hrs by Western blot analysis; assay type: functional, cell-based; details: time 4-24 hrs
DOHH-2 [6] = test: Induction of autophagy in human DOHH-2 cells assessed as change in transformation of LC3B1 to LC3B2 expression at 8 uM measured after 4 to 24 hrs by Western blot analysis; assay type: functional, cell-based; details: time 4-24 hrs
[7] = biological target: T1, Tubulin beta (Homo sapiens) (UniProt P68371+Q9H4B7+Q13509+P04350+Q3ZCM7+P07437+Q13885+Q9BVA1+Q9BUF5+A6NNZ2); test: Binding affinity to beta-tubulin in human DOHH-2 cells measured after 6 hrs by pull-down assay; assay type: cell-based; details: DDE = dose-dependent effect
[8] = biological target: Glutathione S-transferase 3, mitochondrial (Homo sapiens) (UniProt O14880); test: Binding affinity to MGST3 in human DOHH-2 cells measured after 6 hrs by pull-down assay; assay type: cell-based; details: DDE = dose-dependent effect
Glutathione S-transferase 3, mitochondrial (Homo sapiens), sequence (O14880 whole entry): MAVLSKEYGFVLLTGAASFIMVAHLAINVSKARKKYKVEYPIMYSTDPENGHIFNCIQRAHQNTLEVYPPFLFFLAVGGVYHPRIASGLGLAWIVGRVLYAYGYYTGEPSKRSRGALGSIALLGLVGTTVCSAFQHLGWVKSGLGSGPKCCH

[9] = biological target: T2, Peroxiredoxin-2 (Homo sapiens) (UniProt P32119); test: Binding affinity to PRDX2 in human MDA-MB-453 cells measured after 6 hrs by pull-down assay; assay type: cell-based; details: dose <= 20.0 µM, DDE = dose-dependent effect
T2 sequence (whole entry): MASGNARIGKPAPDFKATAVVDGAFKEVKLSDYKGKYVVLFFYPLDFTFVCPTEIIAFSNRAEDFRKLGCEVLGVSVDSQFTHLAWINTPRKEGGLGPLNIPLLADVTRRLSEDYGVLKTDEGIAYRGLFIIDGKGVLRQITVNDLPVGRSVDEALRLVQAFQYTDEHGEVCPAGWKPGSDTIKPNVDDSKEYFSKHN

[10] = biological target: T3, Peroxiredoxin-5, mitochondrial (Homo sapiens) (UniProt P30044); test: Binding affinity to PRDX5 in human MDA-MB-453 cells measured after 6 hrs by pull-down assay; assay type: cell-based; details: dose <= 20.0 µM, DDE = dose-dependent effect
T3 sequence (whole entry): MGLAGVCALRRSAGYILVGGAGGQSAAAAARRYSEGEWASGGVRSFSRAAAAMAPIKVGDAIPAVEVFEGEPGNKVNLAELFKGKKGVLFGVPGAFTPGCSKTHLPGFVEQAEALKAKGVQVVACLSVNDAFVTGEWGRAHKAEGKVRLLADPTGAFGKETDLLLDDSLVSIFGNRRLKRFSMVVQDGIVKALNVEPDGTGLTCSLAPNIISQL

[11] = biological target: T4, Protein disulfide-isomerase A3 (Homo sapiens) (UniProt P30101); test: Binding affinity to PDIA3 in human MDA-MB-453 cells measured after 6 hrs by pull-down assay; assay type: cell-based; details: dose <= 20.0 µM, DDE = dose-dependent effect
T4 sequence (whole entry): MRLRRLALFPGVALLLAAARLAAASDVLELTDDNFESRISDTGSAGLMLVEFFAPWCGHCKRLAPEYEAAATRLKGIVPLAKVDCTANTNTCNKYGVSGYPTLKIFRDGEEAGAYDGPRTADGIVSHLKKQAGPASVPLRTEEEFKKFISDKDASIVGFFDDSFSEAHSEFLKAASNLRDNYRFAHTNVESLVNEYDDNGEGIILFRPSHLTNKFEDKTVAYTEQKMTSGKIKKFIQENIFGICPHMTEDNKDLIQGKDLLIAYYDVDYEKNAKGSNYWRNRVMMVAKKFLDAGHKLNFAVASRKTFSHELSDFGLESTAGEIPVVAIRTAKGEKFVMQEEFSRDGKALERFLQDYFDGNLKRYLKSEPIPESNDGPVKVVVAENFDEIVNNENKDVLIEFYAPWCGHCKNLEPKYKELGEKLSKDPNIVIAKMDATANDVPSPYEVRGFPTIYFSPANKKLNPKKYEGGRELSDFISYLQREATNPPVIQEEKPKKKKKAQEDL

[12] = biological target: T5, Protein disulfide-isomerase A6 (Homo sapiens) (UniProt Q15084); test: Binding affinity to PDIA6 in human MDA-MB-453 cells measured after 6 hrs by pull-down assay; assay type: cell-based; details: dose <= 20.0 µM, DDE = dose-dependent effect
T5 sequence (whole entry): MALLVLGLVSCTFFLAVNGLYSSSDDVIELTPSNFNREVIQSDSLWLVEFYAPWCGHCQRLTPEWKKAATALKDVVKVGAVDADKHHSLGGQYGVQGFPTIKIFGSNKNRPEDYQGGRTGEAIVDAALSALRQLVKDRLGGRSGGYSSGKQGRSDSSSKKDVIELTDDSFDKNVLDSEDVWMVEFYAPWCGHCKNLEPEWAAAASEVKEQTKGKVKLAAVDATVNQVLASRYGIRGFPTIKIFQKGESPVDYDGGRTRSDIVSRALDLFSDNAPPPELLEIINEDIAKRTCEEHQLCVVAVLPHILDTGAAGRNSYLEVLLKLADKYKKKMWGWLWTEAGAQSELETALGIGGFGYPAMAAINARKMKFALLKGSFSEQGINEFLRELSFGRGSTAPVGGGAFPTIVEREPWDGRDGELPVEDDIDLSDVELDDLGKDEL

[13] = biological target: T6, Peroxiredoxin-1 (Homo sapiens) (UniProt Q06830); test: Binding affinity to PRDX1 in human DOHH-2 cells by MS analysis; assay type: cell-based
T6 sequence (whole entry): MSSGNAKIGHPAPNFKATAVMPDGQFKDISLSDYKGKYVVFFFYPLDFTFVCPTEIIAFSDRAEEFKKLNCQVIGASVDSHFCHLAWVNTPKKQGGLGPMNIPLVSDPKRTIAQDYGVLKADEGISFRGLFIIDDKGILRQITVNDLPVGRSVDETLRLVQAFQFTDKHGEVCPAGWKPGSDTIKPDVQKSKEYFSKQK

[14] = biological target: T1, Tubulin beta (Homo sapiens); test: Binding affinity to beta-tubulin in human DOHH-2 cells by MS analysis; assay type: cell-based

## C#Cc1cccc(C#CS(N)(=O)=O)c1
[1]
  Activity: 513 Da
Homo sapiens
  Activity: Dde
DOHH-2 [2]
  Activity: Active
DOHH-2 [3]
  Activity: Active
DOHH-2 [4]
  Activity: Active
DOHH-2 [5]
  Activity: Active
DOHH-2 [6]
  Activity: Active
[7]
  Activity: Dde
[8]
  Activity: Dde
[9]
  Activity: Dde
[10]
  Activity: Dde
[11]
  Activity: Dde
[12]
  Activity: Dde
[13]
  Activity: Active
[14]
  Activity: Active
